From ChEMBL document CHEMBL1149860, “Synthesis and neuropharmacological characterization of 2-O-substituted apomorphines” (Bioorg Med Chem, 2008)

Assays:
D(2) dopamine receptor [1] = target: D(2) dopamine receptor (Homo sapiens, UniProt P14416); assay: biochemical
Description: Displacement of [3H]raclopride from human cloned dopamine D2 receptor expressed in CHO cell membrane

D(2) dopamine receptor [2] = target: T1, D(2) dopamine receptor (Rattus norvegicus, UniProt P61169); assay: Displacement of [3H]raclopride from rat dopamine D2(short) receptor expressed in CHOK1 cells; type: cell-based, CHO-K1
D(2) dopamine receptor [3] = target: T1, D(2) dopamine receptor; assay: Agonist activity at rat dopamine D2(short) receptor expressed in CHOK1 cells by [35S]GTPgammaS binding assay; type: functional, cell-based, CHO-K1
[4] = target: D(2) dopamine receptor (Rattus norvegicus) (UniProt P61169); assay: Agonist activity at rat dopamine D2(short) receptor expressed in CHOK1 cells by [35S]GTPgammaS binding assay relative to quinpirole; type: functional, cell-based; conditions: CHO-K1
D(1A) dopamine receptor = D(1A) dopamine receptor (Mus musculus, UniProt Q61616); assay: Displacement of [3H]SCH23390 from dopamine D1 receptor in mouse Ltk- fibroblast cells; type: cell-based
D(2) dopamine receptor [5] = target: T1, D(2) dopamine receptor; assay: Displacement of [3H]raclopride from dopamine D2 receptor in rat striatal membrane; type: cell membranes, Striatum

D(2) dopamine receptor (Rattus norvegicus), sequence (P61169 whole entry): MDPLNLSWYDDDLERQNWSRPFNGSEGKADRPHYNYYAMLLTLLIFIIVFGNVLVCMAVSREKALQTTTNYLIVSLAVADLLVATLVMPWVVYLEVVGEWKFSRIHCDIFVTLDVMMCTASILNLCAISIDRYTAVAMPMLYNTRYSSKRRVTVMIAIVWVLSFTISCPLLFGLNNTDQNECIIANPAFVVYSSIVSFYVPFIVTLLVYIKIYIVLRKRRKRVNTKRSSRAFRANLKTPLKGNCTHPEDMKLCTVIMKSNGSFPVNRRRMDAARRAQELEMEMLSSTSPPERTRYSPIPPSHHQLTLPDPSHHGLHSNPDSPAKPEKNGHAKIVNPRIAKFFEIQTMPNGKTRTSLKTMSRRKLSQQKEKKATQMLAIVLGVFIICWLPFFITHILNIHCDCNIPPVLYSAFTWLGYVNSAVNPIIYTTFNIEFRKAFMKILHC
T1 sequence (P61169 whole entry): as above
D(1A) dopamine receptor, sequence (Q61616 whole entry): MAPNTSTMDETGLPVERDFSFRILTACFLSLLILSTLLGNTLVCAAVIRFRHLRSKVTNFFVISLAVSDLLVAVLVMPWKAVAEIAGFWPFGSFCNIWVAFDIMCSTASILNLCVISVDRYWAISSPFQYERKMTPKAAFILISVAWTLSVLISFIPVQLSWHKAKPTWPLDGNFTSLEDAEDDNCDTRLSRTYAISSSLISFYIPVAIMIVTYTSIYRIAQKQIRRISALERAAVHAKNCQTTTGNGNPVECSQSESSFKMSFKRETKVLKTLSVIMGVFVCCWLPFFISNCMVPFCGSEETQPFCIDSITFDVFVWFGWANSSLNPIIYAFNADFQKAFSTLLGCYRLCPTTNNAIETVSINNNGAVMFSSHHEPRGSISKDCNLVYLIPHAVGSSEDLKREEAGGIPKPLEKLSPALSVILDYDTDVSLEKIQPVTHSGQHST
D(2) dopamine receptor (Homo sapiens, UniProt P14416), sequence (P14416 whole entry): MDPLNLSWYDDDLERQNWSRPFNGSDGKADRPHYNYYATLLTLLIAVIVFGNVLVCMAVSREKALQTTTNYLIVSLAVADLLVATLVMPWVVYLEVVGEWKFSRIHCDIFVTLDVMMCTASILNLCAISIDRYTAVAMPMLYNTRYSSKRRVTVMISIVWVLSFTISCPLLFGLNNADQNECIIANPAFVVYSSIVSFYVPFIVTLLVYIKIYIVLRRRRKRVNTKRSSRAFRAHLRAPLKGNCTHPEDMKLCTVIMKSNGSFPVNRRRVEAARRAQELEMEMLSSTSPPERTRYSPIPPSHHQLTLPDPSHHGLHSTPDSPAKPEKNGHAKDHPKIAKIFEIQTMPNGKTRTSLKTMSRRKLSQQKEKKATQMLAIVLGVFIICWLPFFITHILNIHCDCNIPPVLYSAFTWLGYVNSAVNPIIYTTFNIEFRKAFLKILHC

Molecule `CN1CCc2cc(-c3ccc(O)cc3)cc3c2[C@H]1Cc1ccc(O)c(O)c1-3` has a Ki (D(2) dopamine receptor [1]) of 3.8 nM.

Work on `CN1CCc2cc(OCCOc3cc4c5c(c3)-c3c(ccc(O)c3O)C[C@H]5N(C)CC4)cc3c2[C@H]1Cc1ccc(O)c(O)c1-3` yielded a Ki (D(2) dopamine receptor [2]) of 345 nM, an EC50 (D(2) dopamine receptor [3]) of 308 nM and an Efficacy [4] of 18%. For the same molecule, the Ki (D(1A) dopamine receptor) was 5200 nM.

Work on `CSc1cc2c3c(c1)-c1c(ccc(O)c1O)C[C@H]3N(C)CC2` yielded a Ki (D(2) dopamine receptor [5]) of 54.7 nM.

With `COc1cc2c3c(c1)-c1c(ccc(O)c1O)CC3N(C)CC2` (stereo unspecified) the Ki (D(2) dopamine receptor [2]) was 74 nM, the EC50 (D(2) dopamine receptor [3]) was 114 nM and the Efficacy [4] was 66%. The Ki (D(1A) dopamine receptor) was 2600 nM.

`CN1CCc2cc(OCCO)cc3c2[C@H]1Cc1ccc(O)c(O)c1-3` gave a Ki (D(2) dopamine receptor [2]) of 347 nM, an EC50 (D(2) dopamine receptor [3]) of 315 nM and an Efficacy [4] of 19%. For the same molecule, the Ki (D(1A) dopamine receptor) was 5300 nM.

`CCOc1cc2c3c(c1)-c1c(ccc(O)c1O)C[C@H]3N(C)CC2` showed a Ki (D(2) dopamine receptor [2]) of 44 nM, an EC50 (D(2) dopamine receptor [3]) of 55 nM and an Efficacy [4] of 70%. The Ki (D(1A) dopamine receptor) was 2900 nM.

Molecule `CCCCOc1cc2c3c(c1)-c1c(ccc(O)c1O)C[C@H]3N(C)CC2` has a Ki (D(2) dopamine receptor [2]) of 60 nM, an EC50 (D(2) dopamine receptor [3]) of 58 nM and an Efficacy [4] of 57%. The Ki (D(1A) dopamine receptor) was 2100 nM.

With `CN1CCc2cc(-c3ccccc3)cc3c2[C@H]1Cc1ccc(O)c(O)c1-3` the Ki (D(2) dopamine receptor [1]) was 88 nM.

Molecule `CN1CCc2cc(N)cc3c2[C@H]1Cc1ccc(O)c(O)c1-3` has a Ki (D(2) dopamine receptor [5]) of 19.9 nM.

`CN1CCc2cc(OCCOCCO)cc3c2[C@H]1Cc1ccc(O)c(O)c1-3` showed a Ki (D(2) dopamine receptor [2]) of 587 nM, an EC50 (D(2) dopamine receptor [3]) of 939 nM and an Efficacy [4] of 58%. The Ki (D(1A) dopamine receptor) was 7600 nM.

Work on `CCCOc1cc2c3c(c1)-c1c(ccc(O)c1O)C[C@H]3N(C)CC2` yielded a Ki (D(2) dopamine receptor [2]) of 75 nM, an EC50 (D(2) dopamine receptor [3]) of 76 nM and an Efficacy [4] of 71%. It also gave a Ki (D(1A) dopamine receptor) of 3500 nM.

For `CN1CCc2cc(F)cc3c2[C@H]1Cc1ccc(O)c(O)c1-3`, the Ki (D(2) dopamine receptor [5]) was 0.43 nM.

Molecule `CN1CCc2cc(OCCOCCOc3cc4c5c(c3)-c3c(ccc(O)c3O)C[C@H]5N(C)CC4)cc3c2[C@H]1Cc1ccc(O)c(O)c1-3` has a Ki (D(2) dopamine receptor [2]) of 17200 nM, an EC50 (D(2) dopamine receptor [3]) greater than 10000 nM and a Ki (D(1A) dopamine receptor) greater than 10000 nM.
